# pIC50: −log10 of the molar value.
# Target: T1, SARM1 (50-724) (Homo sapiens, UniProt Q6SZW1)
# T1 construct: Purified SARM1 (50-724) with a final concentration of 2 nM was pre-incubated with a test compound
# T1 sequence (Q6SZW1 50-724): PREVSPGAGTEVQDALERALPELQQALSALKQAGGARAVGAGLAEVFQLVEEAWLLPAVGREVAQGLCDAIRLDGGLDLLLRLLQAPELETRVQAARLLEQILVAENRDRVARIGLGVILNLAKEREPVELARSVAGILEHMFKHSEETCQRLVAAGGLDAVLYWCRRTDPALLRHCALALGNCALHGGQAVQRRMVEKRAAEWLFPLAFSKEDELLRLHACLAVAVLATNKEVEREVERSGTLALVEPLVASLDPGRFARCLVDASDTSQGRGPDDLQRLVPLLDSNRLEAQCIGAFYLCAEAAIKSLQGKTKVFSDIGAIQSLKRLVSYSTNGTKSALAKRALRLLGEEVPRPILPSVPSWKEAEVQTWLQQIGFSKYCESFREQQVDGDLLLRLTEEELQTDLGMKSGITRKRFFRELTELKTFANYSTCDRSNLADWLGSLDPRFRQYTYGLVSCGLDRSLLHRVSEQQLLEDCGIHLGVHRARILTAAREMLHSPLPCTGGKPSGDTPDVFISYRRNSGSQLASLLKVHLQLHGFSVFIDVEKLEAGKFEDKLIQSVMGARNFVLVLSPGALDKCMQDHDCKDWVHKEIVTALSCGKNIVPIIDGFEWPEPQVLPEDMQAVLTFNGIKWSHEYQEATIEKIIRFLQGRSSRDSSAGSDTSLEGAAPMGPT
# Assay: SARM1 (50-724) enzymatic assay (LC-MS/MS)
# Format: biochemical
# Settings: Purified SARM1 (50-724) 2 nM, NMN as activator, NAD+ as substrate, 1 h at room temperature, read-out: IC50 (SARM1 inhibitory activity)
# Method in brief: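 Human SARM1 (50-724), 2 nM, pre-incubated 15 min at room temperature with compound in Dulbecco's PBS. Reaction started with 200 µM NMN (activator) plus […] NAD^+ substrate, run 1 h at room temperature, quenched with 70% acetonitrile. Turnover quantified by LC-MS/MS; IC50 reported.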
row,Compound,pIC50
1,"CCS(=O)(=O)Cc1nnc(-c2nc3cc(Cl)cc(F)c3[nH]2)n1-c1cccc(F)c1Cl [Compound 193, 5-chloro-2-(4-(2-chloro-3-fluorophenyl)-5-((ethylsulfonyl)methyl)-4H-1,2,4-triazol-3-yl)-7-fluoro-1H-benzo[d]imidazole]",≥ 7.00
2,"Fc1cc(CC(F)(F)F)cc2nc(-c3nncn3-c3cnccc3C(F)(F)F)[nH]c12 [Compound 282, 7-fluoro-5-(2,2,2-trifluoroethyl)-2-(4-(4-(trifluoromethyl)pyridin-3-yl)-4H-1,2,4-triazol-3-yl)-1H-benzo[d]imidazole]",≥ 7.00
3,"Cn1c(-n2cnnc2-c2nc3cc(C(F)(F)F)ccc3[nH]2)c(C(F)(F)F)ccc1=O [Compound 284, 1-methyl-5-(trifluoromethyl)-6-(3-(5-(trifluoromethyl)-1H-benzo[d]imidazol-2-yl)-4H-1,2,4-triazol-4-yl)pyridin-2(1H)-one]",≥ 7.00
4,"C[S+]([O-])Cc1nnc(-c2nc3cc(C(F)(F)F)ccc3[nH]2)n1-c1cccc(Cl)c1Cl (single isomer, unassigned) [Compound 147, 2-(4-(2,3-dichlorophenyl)-5-((methylsulfinyl)methyl)-4H-1,2,4-triazol-3-yl)-5-(trifluoromethyl)-1H-benzo[d]imidazole]",≥ 7.00
5,"COc1cc(-n2cnnc2-c2nc3cc(C(F)(F)F)ccc3[nH]2)c(OC(F)(F)F)cn1 [Compound 210, 2-(4-(2-methoxy-5-(trifluoromethoxy)pyridin-4-yl)-4H-1,2,4-triazol-3-yl)-5-(trifluoromethyl)-1H-benzo[d]imidazole]",≥ 7.00
6,"OCCOc1ccc(OC(F)(F)F)c(-n2cnnc2-c2nc3cc(C(F)(F)F)ccc3[nH]2)c1 [Compound 230, 2-(4-(trifluoromethoxy)-3-(3-(5-(trifluoromethyl)-1H-benzo[d]imidazol-2-yl)-4H-1,2,4-triazol-4-yl)phenoxy)ethan-1-ol]",≥ 7.00
7,"Fc1c(-c2nncn2-c2cnccc2C(F)(F)F)[nH]c2ccc(C(F)(F)F)cc12 [Compound 259, 3-fluoro-5-(trifluoromethyl)-2-(4-(4-(trifluoromethyl)pyridin-3-yl)-4H-1,2,4-triazol-3-yl)-1H-indole]",≥ 7.00
8,"Cc1ccc2[nH]c(-c3nccn3C3CCCC3)nc2c1 [Compound 2, 2-(1-cyclopentylimidazol-2-yl)-5-methyl-1H-benzimidazole]",6.00 to 6.30
9,"N#Cc1cccc(-n2cnnc2-c2nc3cc(C(F)(F)F)ccc3[nH]2)c1Cl [Compound 159, 2-chloro-3-(3-(5-(trifluoromethyl)-1H-benzo[d]imidazol-2-yl)-4H-1,2,4-triazol-4-yl)benzonitrile]",≥ 7.00
10,"CN1CCN(c2ccc(Cl)c(-n3cnnc3-c3nc4cc(C(F)(F)F)ccc4[nH]3)n2)CC1=O [Compound 208, 4-(5-chloro-6-(3-(5-(trifluoromethyl)-1H-benzo[d]imidazol-2-yl)-4H-1,2,4-triazol-4-yl)pyridin-2-yl)-1-methylpiperazin-2-one]",≥ 7.00
11,"CS(=O)(=O)NCc1nnc(-c2nc3cc(C(F)(F)F)ccc3[nH]2)n1-c1cccc(Cl)c1Cl [Compound 139, N-((4-(2,3-dichlorophenyl)-5-(5-(trifluoromethyl)-1H-benzo[d]imidazol-2-yl)-4H-1,2,4-triazol-3-yl)methyl)methanesulfonamide]",≥ 7.00
12,"CS(=O)(=O)Cc1nnc(-c2nc3cc(C(F)(F)F)cc(F)c3[nH]2)n1-c1cccc(F)c1Cl (single isomer, unassigned) [Compound 183, 2-(4-(2-Chloro-3-fluorophenyl)-5-((methylsulfonyl)methyl)-4H-1,2,4-triazol-3-yl)-7-fluoro-5-(trifluoromethyl)-1H-benzo[d]imidazole]",6.30 to 7.00
13,"CC(O)C(C)(C)c1ccc2[nH]c(-c3nncn3-c3cccc(Cl)c3Cl)nc2c1 (centres unmarked) [Compound 140, 3-(2-(4-(2,3-dichlorophenyl)-4H-1,2,4-triazol-3-yl)-1H-benzo[d]imidazol-5-yl)-3-methylbutan-2-ol]",≥ 7.00
14,"FC(F)(F)c1ccc2[nH]c(-c3nncn3-c3cnncc3C3CC3)nc2c1 [Compound 220, 2-(4-(5-cyclopropylpyridazin-4-yl)-4H-1,2,4-triazol-3-yl)-5-(trifluoromethyl)-1H-benzo[d]imidazole]",6.30 to 7.00
15,"Cc1ccc2[nH]c(-c3cc(CO)cn3C3CCCC3)nc2c1 [Compound 16, (1-Cyclopentyl-5-(5-methyl-1H-benzo[d]imidazol-2-yl)-1H-pyrrol-3-yl)methanol]",6.00 to 6.30
16,"CS(=O)(=O)Cc1nnc(-c2nc3c(F)c(C(F)(F)F)ccc3[nH]2)n1-c1cccc(F)c1Cl (single isomer, unassigned) [Compound 197, 2-(4-(2-chloro-3-fluorophenyl)-5-((methylsulfonyl)methyl)-4H-1,2,4-triazol-3-yl)-4-fluoro-5-(trifluoromethyl)-1H-benzo[d]imidazole]",≥ 7.00
17,"Cc1ccc2[nH]c(-c3[nH]nnc3C3CCCC3)nc2c1 [Compound 33, 2-(4-cyclopentyl-1H-1,2,3-triazol-5-yl)-5-methyl-1H-benzo[d]imidazole]",< 6.00
18,"CN(c1ccc2[nH]c(-c3nncn3-c3cnccc3C(F)(F)F)nc2c1)S(C)(=O)=O [Compound 341, N-methyl-N-[2-[4-[4-(trifluoromethyl)-3-pyridyl]-1,2,4-triazol-3-yl]-1H-benzimidazol-5-yl]methanesulfonamide]",6.30 to 7.00
19,"CC(C)(O)c1ccc2[nH]c(-c3nnccc3-c3cnccc3C(F)(F)F)nc2c1F [Compound 343, 2-(4-Fluoro-2-(4-(4-(trifluoromethyl)pyridin-3-yl)pyridazin-3-yl)-1H-benzo[d]imidazol-5-yl)propan-2-ol]",≥ 7.00
20,"FC(F)(F)Oc1cnccc1-n1cnnc1-c1nc2cc(C(F)(F)F)cc(Cl)c2[nH]1 [Compound 227, 7-chloro-2-(4-(3-(trifluoromethoxy)pyridin-4-yl)-4H-1,2,4-triazol-3-yl)-5-(trifluoromethyl)-1H-benzo[d]imidazole]",≥ 7.00
21,"FC(F)(F)c1ccncc1-n1cnnc1-c1nc2c(C3CC3)c(Cl)ccc2[nH]1 [Compound 333, 6-chloro-7-cyclopropyl-2-(4-(4-(trifluoromethyl)pyridin-3-yl)-4H-1,2,4-triazol-3-yl)-1H-benzo[d]imidazole]",6.00 to 6.30
22,"FC1(F)CN(c2c(Cl)ccc3[nH]c(-c4nncn4-c4cnccc4C(F)(F)F)nc23)C1 [Compound 358, 5-chloro-4-(3,3-difluoroazetidin-1-yl)-2-(4-(4-(trifluoromethyl)pyridin-3-yl)-4H-1,2,4-triazol-3-yl)-1H-benzo[d]imidazole]",6.30 to 7.00

# More lines, now with the values ahead:
row,pIC50,Compound
1,≥ 7.00,"CS(=O)(=O)Cc1nnc(-c2cc3cc(C(F)(F)F)ccc3[nH]2)n1-c1cnccc1C(F)(F)F [Compound 380, 2-(5-((methylsulfonyl)methyl)-4-(4-(trifluoromethyl)pyridin-3-yl)-4H-1,2,4-triazol-3-yl)-5-(trifluoromethyl)-1H-indole]"
2,≥ 7.00,FC(F)(F)c1ccc2[nH]c(-c3nncn3-c3ccccc3Cl)nc2c1 [Example 105]
3,6.30 to 7.00,"CC(C)(N)c1ccc2[nH]c(-c3nncn3-c3cnccc3C(F)(F)F)nc2c1 [Compound 448, 2-[2-[4-[4-(trifluoromethyl)-3-pyridyl]-1,2,4-triazol-3-yl]-1H-benzimidazol-5-yl]propan-2-amine]"
4,6.30 to 7.00,"CP(C)(=O)c1cc(F)c2[nH]c(-c3nncn3-c3cnccc3C(F)(F)F)nc2c1 [Compound 392, 5-dimethylphosphoryl-7-fluoro-2-[4-[4-(trifluoromethyl)-3-pyridyl]-1,2,4-triazol-3-yl]-1H-benzimidazole]"
5,6.00 to 6.30,FC(F)(F)c1ccc2[nH]c(-c3scnc3-c3cccc(Cl)c3Cl)nc2c1 [Example 42]
6,≥ 7.00,Fc1ccc(-n2cnnc2-c2nc3cc(C(F)(F)F)ccc3[nH]2)c(Cl)c1Cl [Example 85]
7,≥ 7.00,Oc1ccc(Cl)c(-n2cnnc2-c2nc3cc(C(F)(F)F)ccc3[nH]2)n1 [Example 115]
8,6.30 to 7.00,"Cc1cnn(C)c1-c1ccc2[nH]c(-c3nncn3-c3cccc(Cl)c3Cl)nc2c1 [Example 81, 2-(4-(2,3-dichlorophenyl)-4H-1,2,4-triazol-3-yl)-5-(1,4-dimethyl-1H-pyrazol-5-yl)-1H-benzo[d]imidazole]"
9,≥ 7.00,"COC(=O)C(C)c1ccc2[nH]c(-c3nncn3-c3cccc(Cl)c3Cl)nc2c1 (centres unmarked) [Example 101, methyl 2-(2-(4-(2,3-dichlorophenyl)-4H-1,2,4-triazol-3-yl)-1H-benzo[d]imidazol-5-yl)propanoate]"
10,≥ 7.00,"CCC(=O)c1cc(F)c2[nH]c(-c3nncn3-c3cnccc3C(F)(F)F)nc2c1 [Compound 452, 1-(4-fluoro-2-(4-(4-(trifluoromethyl)pyridin-3-yl)-4H-1,2,4-triazol-3-yl)-1H-benzo[d]imidazol-6-yl)propan-1-one]"
